molecular target: T1, Interleukin-1 receptor-associated kinase 4 (Homo sapiens, UniProt Q9NWZ3); assay: 1RAK4 Kinase Activity Assay
T1 sequence (Q9NWZ3 whole entry): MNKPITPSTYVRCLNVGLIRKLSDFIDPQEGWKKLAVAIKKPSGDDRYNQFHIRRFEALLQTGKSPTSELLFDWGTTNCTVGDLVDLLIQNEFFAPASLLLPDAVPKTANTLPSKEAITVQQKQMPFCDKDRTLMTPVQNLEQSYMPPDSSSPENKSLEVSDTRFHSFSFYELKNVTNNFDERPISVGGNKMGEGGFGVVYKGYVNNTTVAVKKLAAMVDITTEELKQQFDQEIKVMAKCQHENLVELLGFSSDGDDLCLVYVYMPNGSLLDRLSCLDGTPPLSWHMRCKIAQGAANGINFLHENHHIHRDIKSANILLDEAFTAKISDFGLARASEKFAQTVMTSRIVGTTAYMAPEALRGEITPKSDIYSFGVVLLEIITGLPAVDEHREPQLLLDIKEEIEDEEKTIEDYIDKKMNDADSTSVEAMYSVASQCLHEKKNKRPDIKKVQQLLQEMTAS
Experimental: Then 2.5 nM 1RAK4 kinase (Carna), 1 μM biotinylated polypeptide substrate (Cisbio) and 7 μM adenosine triphosphate (Sigma-Aldrich) were sequentially added, and the mixtures were incubated at 37° C. for 120 min. Subsequently, an anti-phosphoserine/threonine antibody (Cisbio) conjugated with a europium element compound and conjugated modified XL665 streptavidin (Cisbio) were added to the reaction systems to stop the reactions. After 1 h of incubation at room temperature, the fluorescence intensity of each well was measured at the excitation wavelength of 337 nm and the emission wavelengths of 620 nm and 665 nm with a microplate reader EnVision (PerkinElmer) in the HTRF mode, and Ratio values were calculated using the formula Ratio=(665 nm/620 nm)×[…]. The inhibition rate of the compound at each concentration was calculated by comparing the fluorescence intensity ratio with that of the control group.

Row | SMILES | IC50 [nM]
1 | O=C1CCN(c2cc(C(=O)N3CCC4(CCN(C[C@H]5CC[C@H](n6cc(NC(=O)c7cnn8ccc(N9C[C@H]%10C[C@@H]9CO%10)nc78)c(Cl)n6)CC5)CC4)CC3)ccc2Cl)C(=O)N1 [US20240368194, Example 5] | 360
2 | Cc1nn([C@H]2CC[C@H](CN3CCC4(CC3)CCN(C(=O)c3ccc(Cl)c(N5CCC(=O)NC5=O)c3)CC4)CC2)cc1NC(=O)c1cnn2ccc(N3C[C@H]4C[C@@H]3CO4)nc12 [US20240368194, Example 7] | 313
3 | CN(CC[C@H]1CC[C@H](n2cc(NC(=O)c3cnn4ccc(N5C[C@H]6C[C@@H]5CO6)nc34)c(C(F)F)n2)CC1)CC1CCN(C(=O)c2ccc(Cl)c(N3CCC(=O)NC3=O)c2)CC1 [US20240368194, Example 46] | 278
4 | CN(CCC1CCN(C(=O)c2ccc(Cl)c(N3CCC(=O)NC3=O)c2)CC1)C[C@]1(O)CC[C@@H](n2cc(NC(=O)c3cnn4ccc(N5C[C@H]6C[C@@H]5CO6)nc34)c(C(F)F)n2)CC1 [US20240368194, Example 65] | 52.1

These reach a lower IC50. Values come first.

Row | IC50 [nM] | SMILES
5 | 18.5 | CN(CCC1CCN(C(=O)c2ccc(Cl)c(N3CCC(=O)NC3=O)c2)CC1)C[C@H]1CC[C@H](n2cc(NC(=O)c3cnn4ccc(N5C[C@H]6C[C@@H]5CO6)nc34)c(C(F)F)n2)CC1 [US20240368194, Example 11]
6 | 14.3 | O=C1CCC(c2ccc(C(=O)N3CCC4(CCC(CN5CCC(n6cc(NC(=O)c7cnn8ccc(N9CCOCC9)nc78)c(C(F)F)n6)CC5)CC4)CC3)cc2)C(=O)N1 (stereo not given) [US20240368194, Example 26]
7 | 23.9 | CN(CCC1CCN(C(=O)c2ccc(OC(F)(F)F)c(N3CCC(=O)NC3=O)c2)CC1)C[C@H]1CC[C@H](n2cc(NC(=O)c3cnn4ccc(N5C[C@H]6C[C@@H]5CO6)nc34)c(C(F)F)n2)CC1 [US20240368194, Example 33]
8 | 20 | O=C1CCN(c2cc(C#CCOC3CCN(C[C@H]4CC[C@H](n5cc(NC(=O)c6cnn7ccc(N8CCOCC8)nc67)c(C(F)F)n5)CC4)CC3)ccc2Cl)C(=O)N1 [US20240368194, Example 38]
9 | 25.5 | CN1CCN(c2ccn3ncc(C(=O)Nc4cn([C@H]5CC[C@H](CN(C)CCC6CCN(C(=O)c7ccc(F)c(N8CCC(=O)NC8=O)c7)CC6)CC5)nc4C(F)F)c3n2)CC1 [US20240368194, Example 41]
10 | 8.71 | COc1ccc(C(=O)N2CCC3(CCC(N(C)C[C@H]4CC[C@H](n5cc(NC(=O)c6cnn7ccc(N8CCOCC8)nc67)c(C(F)F)n5)CC4)CC3)CC2)cc1N1CCC(=O)NC1=O [US20240368194, Example 59]

— BindingDB's records for patent US20240368194 (Shanghai Leadingtac Pharmaceutical, 2024)
